Measured values reported in US6444617B1, “Fused-heterocycle dicarboxylic acid diamide derivatives or salts thereof, herbicide and usage thereof” (Nihon Nohyaku Co., Ltd., priority 1998, dated 2002).

Legend:
Format in all cases: in vivo
[1] = system: bulrush (Scirpus juncoides Roxb.); test: Test Example 1: herbicidal effect on paddy field weeds before emergence; details: Dosage 5 kg/ha
Method in brief: (§1)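 Seeds of both weeds, still ungerminated, in soil pots held under paddy conditions received a set dose of test solution as soil treatment. After twenty-one days, control relative to untreated pots was calculated and rated on a scoring scale.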

[2] = system: barnyard grass (Echinochloa crus-galli Beauv.); test: as above; details: Dosage 5 kg/ha
Method in brief: as §1

[3] = system: cleavers (Galium aparine L.), Ga; test: Test Example 3: herbicidal effect on upland weeds before emergence; details: dosage 5 kg/ha
Method in brief: (§2)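 Read-out is the weed-killing rate, scored fourteen days after a single spray application made before the weeds emerged. The spray was a liquid agent carrying the active compound at a prescribed dose.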

[4] = system: velvetleaf (Abutilon theophtasti L.), At; test: as above; details: dosage 5 kg/ha
Method in brief: as §2

[5] = system: forxtail grass (Alopecurus aequalis var. amurensis Ohwi), Am; test: as above; details: foxtail grass, dosage 5 kg/ha
Method in brief: as §2

[6] = system: cocklebur (Xanthium strumarium L.), Xs; test: as above; details: dosage 5 kg/ha
Method in brief: as §2

[7] = system: barnyard grass (Echinochloa crus-galli Beauv.), Ec; test: as above; details: dosage 5 kg/ha
Method in brief: as §2

[8] = system: bird's eye speedwell (Veronica persica Poir.), Vp; test: as above; details: dosage 5 kg/ha
Method in brief: as §2

[9] = system: cleavers (Galium aparine L.), Ga; test: Test Example 4: herbicidal effect on upland weeds after emergence; details: dosage 5 kg/ha; sprayed after emergence; judged 14 days after treatment
Method in brief: (§3)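 Seeds sown in soil and covered. Plants raised to specified leaf stages. Agent with test compound at a prescribed concentration sprayed. Herbicidal effect and crop damage scored after 14 days as weed-killing rate.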

[10] = system: velvetleaf (Abutilon theophtasti L.), At; test: as above; details: dosage 5 kg/ha; sprayed after emergence; judged 14 days after treatment
Method in brief: as §3

[11] = system: forxtail grass (Alopecurus aequalis var. amurensis Ohwi), Am; test: as above; details: dosage 5 kg/ha; sprayed after emergence; judged 14 days after treatment
Method in brief: as §3

[12] = system: cocklebur (Xanthium strumarium L.), Xs; test: as above; details: dosage 5 kg/ha; sprayed after emergence; judged 14 days after treatment
Method in brief: as §3

[13] = system: barnyard grass (Echinochloa crus-galli Beauv.), Ec; test: as above; details: dosage 5 kg/ha; sprayed after emergence; judged 14 days after treatment
Method in brief: as §3

[14] = system: bird's eye speedwell (Veronica persica Poir.), Vp; test: as above; details: dosage 5 kg/ha; sprayed after emergence; judged 14 days after treatment
Method in brief: as §3

[15] = system: monochoria (Monochoria vaginalis Presl); test: Test Example 2: herbicidal effect on paddy field weeds after emergence; details: Dosage 5 kg/ha; one-leaved stage; 21 days after treatment
Method in brief: (§4)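 Weeds in flooded paddy-soil pots were grown to the one-leaved stage, then the soil was treated with the compound solution at a set dosage.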

[16] = system: bulrush (Scirpus juncoides Roxb.); test: as above; details: Dosage 5 kg/ha; one-leaved stage; 21 days after treatment
Method in brief: as §4

[17] = system: barnyard grass (Echinochloa crus-galli Beauv.); test: as above; details: Dosage 5 kg/ha; one-leaved stage; 21 days after treatment
Method in brief: as §4

soybean plant = test: Test Example 4: phytotoxicity to upland crop plants, treatment after emergence; details: dosage 5 kg/ha, sprayed after emergence, judged 14 days after treatment
Method in brief: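 Post-emergence foliar spray at a prescribed concentration, applied once the sown weeds and soybean reached defined leaf stages in soil vats; herbicidal effect and soybean injury scored after 14 days.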

wheat = test: as above; details: dosage 5 kg/ha, sprayed after emergence, judged 14 days after treatment
Method in brief: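 Post-emergence foliar spray, compound at prescribed concentration, applied at defined leaf stages; weeds plus soybean/wheat grown in soil vats. Read-out: weed-killing rate and crop injury, 14 d post-treatment.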

wheat (Wh) = test: Test Example 3: phytotoxicity to upland crop plants, treatment before emergence; details: dosage 5 kg/ha
Method in brief: (§5)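 Phytotoxicity scores for soybean and wheat were assigned by a set criterion 14 days after a pre-emergence spray of a liquid preparation containing the test compound at a prescribed concentration.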

soybean plant (So) = test: as above; details: dosage 5 kg/ha
Method in brief: as §5

SMILES: CCCNC(=O)c1nc2nc(C)n(C)c2cc1C(=O)Nc1c(CC)ccc(Cl)c1CC [compound 1233]
- Pre-emergence treatment Bulrush (herbicidal effect) [1]: 5 (Weed-killing rate is 100%.)
- Pre-emergence treatment Barnyard grass (herbicidal effect) [2]: 5 (Weed-killing rate is 100%.)
- Herbicidal effect Ga [3]: 5 (Weed-killing rate is 100%.)
- Herbicidal effect At [4]: 5 (Weed-killing rate is 100%.)
- Herbicidal effect Am [5]: 5 (Weed-killing rate is 100%.)
- Herbicidal effect Xs [6]: 5 (Weed-killing rate is 100%.)
- Herbicidal effect Ec [7]: 5 (Weed-killing rate is 100%.)
- Herbicidal effect Vp [8]: 5 (Weed-killing rate is 100%.)
- Herbicidal effect Ga [9]: 5 (Weed-killing rate is 100%.)
- Herbicidal effect At [10]: 5 (Weed-killing rate is 100%.)
- Herbicidal effect Am [11]: 5 (Weed-killing rate is 100%.)
- Herbicidal effect Xs [12]: 5 (Weed-killing rate is 100%.)
- Herbicidal effect Ec [13]: 5 (Weed-killing rate is 100%.)
- Herbicidal effect Vp [14]: 5 (Weed-killing rate is 100%.)
- Post-emergence treatment Monochoria (herbicidal effect) [15]: 5 (Weed-killing rate is 100%.)
- Post-emergence treatment Bulrush (herbicidal effect) [16]: 5 (Weed-killing rate is 100%.)
- Post-emergence treatment Barnyard grass (herbicidal effect) [17]: 5 (Weed-killing rate is 100%.)
- Phytotoxicity So (soybean plant): 5 (Crop-killing rate is 100%.)
- Phytotoxicity Wh (wheat): 5 (Crop-killing rate is 100%.)
- Phytotoxicity Wh (wheat (Wh)): 5 (Crop-killing rate is 100%.)
- Phytotoxicity So (soybean plant (So)): 5 (Crop-killing rate is 100%.)

SMILES: CCCNC(=O)c1nc2ocnc2cc1C(=O)Nc1c(CC)ccc(Cl)c1CC [compound 1245]
- Pre-emergence treatment Bulrush (herbicidal effect) [1]: 5 (Weed-killing rate is 100%.)
- Pre-emergence treatment Barnyard grass (herbicidal effect) [2]: 5 (Weed-killing rate is 100%.)
- Herbicidal effect Ga [3]: 5 (Weed-killing rate is 100%.)
- Herbicidal effect At [4]: 5 (Weed-killing rate is 100%.)
- Herbicidal effect Am [5]: 5 (Weed-killing rate is 100%.)
- Herbicidal effect Xs [6]: 5 (Weed-killing rate is 100%.)
- Herbicidal effect Ec [7]: 5 (Weed-killing rate is 100%.)
- Herbicidal effect Vp [8]: 5 (Weed-killing rate is 100%.)
- Herbicidal effect Ga [9]: 5 (Weed-killing rate is 100%.)
- Herbicidal effect At [10]: 5 (Weed-killing rate is 100%.)
- Herbicidal effect Am [11]: 5 (Weed-killing rate is 100%.)
- Herbicidal effect Xs [12]: 5 (Weed-killing rate is 100%.)
- Herbicidal effect Ec [13]: 5 (Weed-killing rate is 100%.)
- Herbicidal effect Vp [14]: 5 (Weed-killing rate is 100%.)
- Post-emergence treatment Monochoria (herbicidal effect) [15]: 5 (Weed-killing rate is 100%.)
- Post-emergence treatment Bulrush (herbicidal effect) [16]: 5 (Weed-killing rate is 100%.)
- Post-emergence treatment Barnyard grass (herbicidal effect) [17]: 5 (Weed-killing rate is 100%.)
- Phytotoxicity So (soybean plant): 5 (Crop-killing rate is 100%.)
- Phytotoxicity Wh (wheat): 5 (Crop-killing rate is 100%.)
- Phytotoxicity Wh (wheat (Wh)): 5 (Crop-killing rate is 100%.)
- Phytotoxicity So (soybean plant (So)): 5 (Crop-killing rate is 100%.)

SMILES: CCCNC(=O)c1nc2c(cc1C(=O)Nc1c(CC)ccc(Cl)c1CC)ncn2C [compound 1269]
- Pre-emergence treatment Bulrush (herbicidal effect) [1]: 5 (Weed-killing rate is 100%.)
- Pre-emergence treatment Barnyard grass (herbicidal effect) [2]: 5 (Weed-killing rate is 100%.)
- Herbicidal effect Ga [3]: 5 (Weed-killing rate is 100%.)
- Herbicidal effect At [4]: 5 (Weed-killing rate is 100%.)
- Herbicidal effect Am [5]: 5 (Weed-killing rate is 100%.)
- Herbicidal effect Xs [6]: 5 (Weed-killing rate is 100%.)
- Herbicidal effect Ec [7]: 5 (Weed-killing rate is 100%.)
- Herbicidal effect Vp [8]: 5 (Weed-killing rate is 100%.)
- Herbicidal effect Ga [9]: 5 (Weed-killing rate is 100%.)
- Herbicidal effect At [10]: 5 (Weed-killing rate is 100%.)
- Herbicidal effect Am [11]: 5 (Weed-killing rate is 100%.)
- Herbicidal effect Xs [12]: 5 (Weed-killing rate is 100%.)
- Herbicidal effect Ec [13]: 5 (Weed-killing rate is 100%.)
- Herbicidal effect Vp [14]: 5 (Weed-killing rate is 100%.)
- Post-emergence treatment Monochoria (herbicidal effect) [15]: 5 (Weed-killing rate is 100%.)
- Post-emergence treatment Bulrush (herbicidal effect) [16]: 5 (Weed-killing rate is 100%.)
- Post-emergence treatment Barnyard grass (herbicidal effect) [17]: 5 (Weed-killing rate is 100%.)
- Phytotoxicity So (soybean plant): 4 (Crop-killing rate is 90-99%.)
- Phytotoxicity Wh (wheat): 5 (Crop-killing rate is 100%.)
- Phytotoxicity Wh (wheat (Wh)): 5 (Crop-killing rate is 100%.)
- Phytotoxicity So (soybean plant (So)): 4 (Crop-killing rate is 90-99%.)

SMILES: CCCNC(=O)c1nc2c(cc1C(=O)Nc1c(CC)ccc(Cl)c1CC)nc(C)n2C [compound 1294]
- Pre-emergence treatment Bulrush (herbicidal effect) [1]: 5 (Weed-killing rate is 100%.)
- Pre-emergence treatment Barnyard grass (herbicidal effect) [2]: 5 (Weed-killing rate is 100%.)
- Herbicidal effect Ga [3]: 5 (Weed-killing rate is 100%.)
- Herbicidal effect At [4]: 5 (Weed-killing rate is 100%.)
- Herbicidal effect Am [5]: 5 (Weed-killing rate is 100%.)
- Herbicidal effect Xs [6]: 5 (Weed-killing rate is 100%.)
- Herbicidal effect Ec [7]: 5 (Weed-killing rate is 100%.)
- Herbicidal effect Vp [8]: 5 (Weed-killing rate is 100%.)
- Herbicidal effect Ga [9]: 5 (Weed-killing rate is 100%.)
- Herbicidal effect At [10]: 5 (Weed-killing rate is 100%.)
- Herbicidal effect Am [11]: 5 (Weed-killing rate is 100%.)
- Herbicidal effect Xs [12]: 5 (Weed-killing rate is 100%.)
- Herbicidal effect Ec [13]: 5 (Weed-killing rate is 100%.)
- Herbicidal effect Vp [14]: 5 (Weed-killing rate is 100%.)
- Post-emergence treatment Monochoria (herbicidal effect) [15]: 5 (Weed-killing rate is 100%.)
- Post-emergence treatment Bulrush (herbicidal effect) [16]: 5 (Weed-killing rate is 100%.)
- Post-emergence treatment Barnyard grass (herbicidal effect) [17]: 5 (Weed-killing rate is 100%.)
- Phytotoxicity So (soybean plant): 4 (Crop-killing rate is 90-99%.)
- Phytotoxicity Wh (wheat): 5 (Crop-killing rate is 100%.)
- Phytotoxicity Wh (wheat (Wh)): 5 (Crop-killing rate is 100%.)
- Phytotoxicity So (soybean plant (So)): 4 (Crop-killing rate is 90-99%.)
